Results published in PubChem BioAssay AID2060599 (Molecular Pharmacology Branch, DTP, NCI, 2025).
Values joined by “and” are separate entries in the source; they are usually repeats but may differ in a detail not shown here. Equal values may be shown once.

System: 817829-284-R-J1-PDC complex spheroids, viability
Test: Anticancer human tumor 817829-284-R-J1-PDC patient-derived colon adenocarcinoma cell line growth inhibition [CLK]
Conditions: for viability, T/C: stronger effect = lower value
How it was run: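 Patient-derived tumor cells grown as complex spheroids with HUVEC endothelial cells and mesenchymal stem cells, treated with drug combinations. Concentrations descend in half-log steps from near clinical Cmax, or from 10 microM if Cmax unknown.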

[1] = curve of first compound, second compound 0.0316 µM
[2] = curve of first compound, second compound 0.1 µM
[3] = curve of first compound, second compound 0.316 µM
[4] = curve of first compound, second compound 1 µM
[5] = curve of first compound, second compound 3.16 µM
[6] = curve of first compound, second compound 10 µM
[7] = second compound 0.0316 µM, first compound 0.00316 µM
[8] = second compound 0.0316 µM, first compound 0.01 µM
[9] = second compound 0.0316 µM, first compound 0.0316 µM
[10] = second compound 0.0316 µM, first compound 0.1 µM
[11] = second compound 0.1 µM, first compound 0.00316 µM
[12] = second compound 0.1 µM, first compound 0.01 µM
[13] = second compound 0.1 µM, first compound 0.0316 µM
[14] = second compound 0.1 µM, first compound 0.1 µM
[15] = second compound 0.316 µM, first compound 0.00316 µM
[16] = second compound 0.316 µM, first compound 0.01 µM
[17] = second compound 0.316 µM, first compound 0.0316 µM
[18] = second compound 0.316 µM, first compound 0.1 µM
[19] = second compound 1 µM, first compound 0.00316 µM
[20] = second compound 1 µM, first compound 0.01 µM
[21] = second compound 1 µM, first compound 0.0316 µM
[22] = second compound 1 µM, first compound 0.1 µM
[23] = second compound 3.16 µM, first compound 0.00316 µM
[24] = second compound 3.16 µM, first compound 0.01 µM
[25] = second compound 3.16 µM, first compound 0.0316 µM
[26] = second compound 3.16 µM, first compound 0.1 µM
[27] = second compound 10 µM, first compound 0.00316 µM
[28] = second compound 10 µM, first compound 0.01 µM
[29] = second compound 10 µM, first compound 0.0316 µM
[30] = second compound 10 µM, first compound 0.1 µM
[31] = second compound 0.0316 µM, first compound 0.316 µM
[32] = second compound 0.0316 µM, first compound 1 µM
[33] = second compound 0.1 µM, first compound 0.316 µM
[34] = second compound 0.1 µM, first compound 1 µM
[35] = second compound 0.316 µM, first compound 0.316 µM
[36] = second compound 0.316 µM, first compound 1 µM
[37] = second compound 1 µM, first compound 0.316 µM
[38] = second compound 1 µM, first compound 1 µM
[39] = second compound 3.16 µM, first compound 0.316 µM
[40] = second compound 3.16 µM, first compound 1 µM
[41] = second compound 10 µM, first compound 0.316 µM
[42] = second compound 10 µM, first compound 1 µM
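Also: spheroids exposed to the agents for seven days before readout.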

## Cn1ncnc1[C@H]1c2n[nH]c(=O)c3cc(F)cc(c23)N[C@@H]1c1ccc(F)cc1 + CN1CCN(c2cc(C(=O)Nc3cc4cc(-c5cnn(C)c5)ccc4cn3)ccn2)CC1
[1]
  IC50: 2.58 nM
[2]
  IC50: < 0.316 nM
[3]
  IC50: < 0.316 nM
[4]
  IC50: < 0.316 nM
[5]
  IC50: < 0.316 nM
[6]
  IC50: < 0.316 nM
Second compound 0.0316 µM, first compound 0.000316 µM
  viability, T/C: 60.1%
Second compound 0.0316 µM, first compound 0.001 µM
  viability, T/C: 54.6%
[7]
  viability, T/C: 47.3%
[8]
  viability, T/C: 43.5%
[9]
  viability, T/C: 32.6%
[10]
  viability, T/C: 24.1%
Second compound 0.1 µM, first compound 0.000316 µM
  viability, T/C: 13.6%
Second compound 0.1 µM, first compound 0.001 µM
  viability, T/C: 14%
[11]
  viability, T/C: 15.3%
[12]
  viability, T/C: 14%
[13]
  viability, T/C: 15.8%
[14]
  viability, T/C: 14.7%
Second compound 0.316 µM, first compound 0.000316 µM
  viability, T/C: 1.91%
Second compound 0.316 µM, first compound 0.001 µM
  viability, T/C: 2.09%
[15]
  viability, T/C: 2.16%
[16]
  viability, T/C: 1.96%
[17]
  viability, T/C: 1.91%
[18]
  viability, T/C: 1.89%
Second compound 1 µM, first compound 0.000316 µM
  viability, T/C: 0.11%
Second compound 1 µM, first compound 0.001 µM
  viability, T/C: 0.08%
[19]
  viability, T/C: 0.09%
[20]
  viability, T/C: 0.09%
[21]
  viability, T/C: 0.08%
[22]
  viability, T/C: 0.09%
Second compound 3.16 µM, first compound 0.000316 µM
  viability, T/C: 0.1%
Second compound 3.16 µM, first compound 0.001 µM
  viability, T/C: 0.11%
[23]
  viability, T/C: 0.14%
[24]
  viability, T/C: 0.1%
[25]
  viability, T/C: 0.15%
[26]
  viability, T/C: 0.11%
Second compound 10 µM, first compound 0.000316 µM
  viability, T/C: 0.04%
Second compound 10 µM, first compound 0.001 µM
  viability, T/C: 0.05%
[27]
  viability, T/C: 0.08%
[28]
  viability, T/C: 0.06%
[29]
  viability, T/C: 0.07%
[30]
  viability, T/C: 0.09%

## C=CC(=O)N1CCN(c2nc(=O)n(-c3c(C)ccnc3C(C)C)c3nc(-c4c(O)cccc4F)c(F)cc23)C(C)C1 (stereo not drawn) + CNC(=O)c1ccc(Nc2nc(OC3CCCC3)c3c(-c4ccc5nc(C)oc5c4)c[nH]c3n2)c(OC)c1
[1]
  IC50: < 31.6 nM
[2]
  IC50: < 31.6 nM
[3]
  IC50: < 31.6 nM
[4]
  IC50: < 31.6 nM
[5]
  IC50: < 31.6 nM
[6]
  IC50: < 31.6 nM
[9]
  viability, T/C: 35.9%
[10]
  viability, T/C: 44.3%
[31]
  viability, T/C: 34.6%
[32]
  viability, T/C: 24.2%
Second compound 0.0316 µM, first compound 3.16 µM
  viability, T/C: 25.9%
Second compound 0.0316 µM, first compound 10 µM
  viability, T/C: 15%
[13]
  viability, T/C: 30.9%
[14]
  viability, T/C: 22.7%
[33]
  viability, T/C: 30.4%
[34]
  viability, T/C: 25.1%
Second compound 0.1 µM, first compound 3.16 µM
  viability, T/C: 22.2%
Second compound 0.1 µM, first compound 10 µM
  viability, T/C: 22.9%
[17]
  viability, T/C: 28.8%
[18]
  viability, T/C: 35.2%
[35]
  viability, T/C: 30.8%
[36]
  viability, T/C: 22.8%
Second compound 0.316 µM, first compound 3.16 µM
  viability, T/C: 31.2%
Second compound 0.316 µM, first compound 10 µM
  viability, T/C: 17.4%
[21]
  viability, T/C: 22.3%
[22]
  viability, T/C: 20.8%
[37]
  viability, T/C: 18.2%
[38]
  viability, T/C: 19.8%
Second compound 1 µM, first compound 3.16 µM
  viability, T/C: 20%
Second compound 1 µM, first compound 10 µM
  viability, T/C: 12.4%
[25]
  viability, T/C: 22.4%
[26]
  viability, T/C: 25.8%
[39]
  viability, T/C: 15.9%
[40]
  viability, T/C: 22.2%
Second compound 3.16 µM, first compound 3.16 µM
  viability, T/C: 23.5%
Second compound 3.16 µM, first compound 10 µM
  viability, T/C: 10.6%
[29]
  viability, T/C: 27.2%
[30]
  viability, T/C: 23.3%
[41]
  viability, T/C: 22%
[42]
  viability, T/C: 27.3%
Second compound 10 µM, first compound 3.16 µM
  viability, T/C: 19.1%
Second compound 10 µM, first compound 10 µM
  viability, T/C: 12%

## CC(CO)NC(=O)c1cc(-c2ccc(Cl)cc2)nn(-c2cnn(C)c2)c1=O (stereo not drawn)
Compound 0.0316 µM
  viability, T/C: 119% and 99.1%
Compound 0.1 µM
  viability, T/C: 68.1% and 82.7%
Compound 0.316 µM
  viability, T/C: 102% and 165%
Compound 1 µM
  viability, T/C: 108% and 100%
Compound 3.16 µM
  viability, T/C: 79.3% and 88.4%
Compound 10 µM
  viability, T/C: 42.8% and 52.4%
Curve of compound
  IC50: 7960 nM and > 10000 nM

## CCc1c2c(nc3ccc(O)cc13)-c1cc3c(c(=O)n1C2)COC(=O)[C@]3(O)CC + CNC(=O)c1ccc(Nc2nc(OC3CCCC3)c3c(-c4ccc5nc(C)oc5c4)c[nH]c3n2)c(OC)c1
[1]
  IC50: < 3.16 nM
[2]
  IC50: < 3.16 nM
[3]
  IC50: < 3.16 nM
[4]
  IC50: < 3.16 nM
[5]
  IC50: < 3.16 nM
[6]
  IC50: < 3.16 nM
[7]
  viability, T/C: 18.9%
[8]
  viability, T/C: 16.6%
[9]
  viability, T/C: 13.2%
[10]
  viability, T/C: 9.4%
[31]
  viability, T/C: 6.53%
[32]
  viability, T/C: 4.13%
[11]
  viability, T/C: 21.3%
[12]
  viability, T/C: 17.2%
[13]
  viability, T/C: 13.2%
[14]
  viability, T/C: 9.71%
[33]
  viability, T/C: 7.28%
[34]
  viability, T/C: 4.24%
[15]
  viability, T/C: 17.3%
[16]
  viability, T/C: 17%
[17]
  viability, T/C: 13%
[18]
  viability, T/C: 7.86%
[35]
  viability, T/C: 5.8%
[36]
  viability, T/C: 3.35%
[19]
  viability, T/C: 15.2%
[20]
  viability, T/C: 12.4%
[21]
  viability, T/C: 7.9%
[22]
  viability, T/C: 5.92%
[37]
  viability, T/C: 4.02%
[38]
  viability, T/C: 2.78%
[23]
  viability, T/C: 13.2%
[24]
  viability, T/C: 9.13%
[25]
  viability, T/C: 6.71%
[26]
  viability, T/C: 6.34%
[39]
  viability, T/C: 4.45%
[40]
  viability, T/C: 2.73%
[27]
  viability, T/C: 11.9%
[28]
  viability, T/C: 8.01%
[29]
  viability, T/C: 7.69%
[30]
  viability, T/C: 4.85%
[41]
  viability, T/C: 4.44%
[42]
  viability, T/C: 2.57%
